EC50 data for 33 compounds are collected here from US10351547B2, “Somatostatin modulators and uses thereof” (priority 2016, dated 2019).

As usually defined, the EC50 is the concentration giving half of the maximal effect.

The target in the first experiment is human SSTR2 (Homo sapiens (Human), UniProt P30874). Nature of the experiment: Human SSTR2 intracellular cAMP functional assay for agonists (HTRF). In kind it is cell-based.
human SSTR2, sequence (P30874 whole entry): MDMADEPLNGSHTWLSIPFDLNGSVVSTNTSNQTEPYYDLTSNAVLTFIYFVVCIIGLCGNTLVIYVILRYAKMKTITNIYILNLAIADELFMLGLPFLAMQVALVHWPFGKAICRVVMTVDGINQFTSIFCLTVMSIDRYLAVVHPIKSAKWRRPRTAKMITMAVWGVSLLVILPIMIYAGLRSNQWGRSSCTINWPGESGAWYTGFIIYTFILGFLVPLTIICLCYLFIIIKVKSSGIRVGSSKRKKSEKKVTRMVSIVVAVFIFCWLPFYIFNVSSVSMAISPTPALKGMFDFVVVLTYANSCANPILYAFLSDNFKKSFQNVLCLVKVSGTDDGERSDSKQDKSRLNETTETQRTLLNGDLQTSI
Conditions: not given
In short, it runs like this: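 Cells bearing human SSTR2 exposed to compound for 20 minutes at 37 °C; after lysis, cAMP measured by time-resolved fluorescence (HTRF) and converted via a standard curve. EC50 calculated from cAMP versus compound concentration.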
In turn, `COc1cc(F)cc(-c2cnc3ccc(-c4cccc(F)c4NC(=O)N4CCC4)cc3c2N2CCC(N)CC2)c1` [2-175, N-{2-[4-(4-aminopiperidin-1-yl)-3-(3-fluoro-5-methoxyphenyl)quinolin-6-yl]-6-fluorophenyl}azetidine-1-carboxamide] showed an EC50 of 10 to 100 nM.

The experiment is the same for the next values; noted with them: CHO-K1 cells stably expressing human SSTR2; NKH477-stimulated cAMP; read-out: EC50 (inhibition of cAMP activities via human SST2R).
In the case of `COC(=O)Nc1c(F)cccc1-c1ccc2ncc(-c3cc(F)cc(OC)c3)c(N3CCC(N)CC3)c2c1` [2-173, methyl N-{2-[4-(4-aminopiperidin-1-yl)-3-(3-fluoro-5-methoxyphenyl)quinolin-6-yl]-6-fluorophenyl}carbamate], the EC50 is below 10 nM. Same read-out and setting: under `CONC(=O)Nc1c(F)cccc1-c1ccc2ncc(-c3cc(F)cc(OC)c3)c(N3CCC(N)CC3)c2c1` [2-174, 1-{2-[4-(4-aminopiperidin-1-yl)-3-(3-fluoro-5-methoxyphenyl)quinolin-6-yl]-6-fluorophenyl}-3-methoxyurea] stands below 10 nM; under `NC1CCN(c2c(-c3cc(F)cc(C(F)(F)F)c3)cnc3ccc(-c4cncc(F)c4C=NO)cc23)CC1` [2-176, 1-(6-{5-fluoro-4-[(hydroxyimino)methyl]pyridin-3-yl}-3-[3-fluoro-5-(trifluoromethyl)phenyl]quinolin-4-yl)piperidin-4-amine], below 10 nM. The same measure, in the same setting: under `N#Cc1cncc(-c2ccc3ncc(-c4cc(F)cc(F)c4)c(N4CCC(N)CC4)c3c2)c1N` [2-177, 4-amino-5-[4-(4-aminopiperidin-1-yl)-3-(3,5-difluorophenyl)quinolin-6-yl]pyridine-3-carbonitrile] stands below 10 nM; under `Cc1cc(F)cc(-c2cnc3ccc(-c4cc(F)cnc4N)cc3c2N2CCC(N)CC2)c1` [2-178, 3-[4-(4-aminopiperidin-1-yl)-3-(3-fluoro-5-methylphenyl)quinolin-6-yl]-5-fluoropyridin-2-amine], below 10 nM. Still for that read-out and setting: under `N#Cc1cc(F)c(F)c(-c2ccc3ncc(-c4cc(F)cc(F)c4)c(N4CCC(N)CC4)c3c2)c1N` [2-179, 2-amino-3-[4-(4-aminopiperidin-1-yl)-3-(3,5-difluorophenyl)quinolin-6-yl]-4,5-difluorobenzonitrile] stands below 10 nM.

As for `COC(=O)Nc1c(C#N)cc(F)c(F)c1-c1ccc2ncc(-c3cc(F)cc(F)c3)c(N3CCC(N)CC3)c2c1` [2-180, methyl N-{2-[4-(4-aminopiperidin-1-yl)-3-(3,5-difluorophenyl)quinolin-6-yl]-6-cyano-3,4-difluorophenyl}carbamate], the EC50 is below 10 nM. Regarding `Cc1cc(F)cc(-c2cnc3ccc(-c4cncc(Cl)c4N)cc3c2N2CCC(N)CC2)c1` [2-181, 3-[4-(4-aminopiperidin-1-yl)-3-(3-fluoro-5-methylphenyl)quinolin-6-yl]-5-chloropyridin-4-amine], the EC50 was below 10 nM. For `CONC(=O)Nc1ncc(F)cc1-c1ccc2ncc(-c3cc(C)cc(F)c3)c(N3CCC(N)CC3)c2c1` [2-183, 1-{3-[4-(4-aminopiperidin-1-yl)-3-(3-fluoro-5-methylphenyl)quinolin-6-yl]-5-fluoropyridin-2-yl}-3-methoxyurea], the EC50 was below 10 nM. On the same count and under the same terms, under `COC(=O)Nc1c(Cl)cncc1-c1ccc2ncc(-c3cc(C)cc(F)c3)c(N3CCC(N)CC3)c2c1` [2-184, methyl N-{3-[4-(4-aminopiperidin-1-yl)-3-(3-fluoro-5-methylphenyl)quinolin-6-yl]-5-chloropyridin-4-yl}carbamate] stands below 10 nM; under `COC(=O)Nc1ccc(C#N)cc1-c1ccc2ncc(-c3cc(F)cc(F)c3)c(N3CCC(N)CC3)c2c1` [2-185], below 10 nM; under `CONC(=O)Nc1c(Cl)cncc1-c1ccc2ncc(-c3cc(C)cc(F)c3)c(N3CCC(N)CC3)c2c1` [2-186, 1-{3-[4-(4-aminopiperidin-1-yl)-3-(3-fluoro-5-methylphenyl)quinolin-6-yl]-5-chloropyridin-4-yl}-3-methoxyurea], below 10 nM. Still for that read-out and setting: under `Cc1cc(F)cc(-c2cnc3ccc(-c4cncc(C#N)c4N)cc3c2N2CCC(N)CC2)c1` [2-187, 4-amino-5-[4-(4-aminopiperidin-1-yl)-3-(3-fluoro-5-methylphenyl)quinolin-6-yl]pyridine-3-carbonitrile] stands below 10 nM; under `Cn1ncc(-c2ccc3ncc(-c4cc(F)cc(F)c4)c(N4CCC(N)CC4)c3c2)c1C=NO` [2-188, 1-[3-(3,5-difluorophenyl)-6-{5-[(hydroxyimino)methyl]-1-methyl-1H-pyrazol-4-yl}quinolin-4-yl]piperidin-4-amine], below 10 nM. On the same count and under the same terms, under `CONC(=O)Nc1ccc(C#N)cc1-c1ccc2ncc(-c3cc(F)cc(F)c3)c(N3CCC(N)CC3)c2c1` [2-189, 1-{2-[4-(4-aminopiperidin-1-yl)-3-(3,5-difluorophenyl)quinolin-6-yl]-4-cyanophenyl}-3-methoxyurea] stands below 10 nM; under `CON(C)C(=O)Nc1c(C#N)cc(F)c(F)c1-c1ccc2ncc(-c3cc(F)cc(F)c3)c(N3CCC(N)CC3)c2c1` [2-191, 1-{2-[4-(4-aminopiperidin-1-yl)-3-(3,5-difluorophenyl)quinolin-6-yl]-6-cyano-3,4-difluorophenyl}-3-methoxy-3-methylurea], below 10 nM. For `NC1CCN(c2c(-c3cc(F)cc(F)c3)cnc3ccc(-c4cncc(Cl)c4C=NO)cc23)CC1` [2-192, 1-(6-{5-chloro-4-[(hydroxyimino)methyl]pyridin-3-yl}-3-(3,5-difluorophenyl)quinolin-4-yl)piperidin-4-amine], the EC50 was below 10 nM.

With `COCOc1c(C#N)cc(F)cc1-c1ccc2ncc(-c3cc(F)cc(F)c3)c(N3CCC(N)CC3)c2c1` [2-194, 3-[4-(4-aminopiperidin-1-yl)-3-(3,5-difluorophenyl)quinolin-6-yl]-5-fluoro-2-(methoxymethoxy)benzonitrile], the EC50 is below 10 nM.

Regarding `NC1CCN(c2c(-c3cc(F)cc(F)c3)cnc3ccc(-c4ncccc4C=NO)cc23)CC1` [2-195, 1-[3-(3,5-difluorophenyl)-6-{3-[(hydroxyimino)methyl]pyridin-2-yl}quinolin-4-yl]piperidin-4-amine], the EC50 was below 10 nM. Still for that read-out and setting: under `NC1CCN(c2c(-c3cc(F)cc(F)c3)cnc3ccc(-c4cccnc4C=NO)cc23)CC1` [2-196, 1-[3-(3,5-difluorophenyl)-6-{2-[(hydroxyimino)methyl]pyridin-3-yl}quinolin-4-yl]piperidin-4-amine] stands below 10 nM; under `COC(=O)Nc1c(F)cc(F)cc1-c1ccc2ncc(-c3cc(C)cc(F)c3)c(N3CCC(N)CC3)c2c1` [2-197, methyl N-{2-[4-(4-aminopiperidin-1-yl)-3-(3-fluoro-5-methylphenyl)quinolin-6-yl]-4,6-difluorophenyl}carbamate], below 10 nM; under `CON(C)C(=O)Nc1c(F)cc(F)cc1-c1ccc2ncc(-c3cc(C)cc(F)c3)c(N3CCC(N)CC3)c2c1` [2-198, 1-{2-[4-(4-aminopiperidin-1-yl)-3-(3-fluoro-5-methylphenyl)quinolin-6-yl]-4,6-difluorophenyl}-3-methoxy-3-methylurea], below 10 nM. With `Cc1cc(F)cc(-c2cnc3ccc(-c4cc(F)cc(F)c4NC(=O)N(C)C)cc3c2N2CCC(N)CC2)c1` [2-199, 1-{2-[4-(4-aminopiperidin-1-yl)-3-(3-fluoro-5-methylphenyl)quinolin-6-yl]-4,6-difluorophenyl}-3,3-dimethylurea], the EC50 is below 10 nM. Still for that read-out and setting: under `NC1CCN(c2c(-c3cc(F)cc(F)c3)cnc3ccc(-c4cccc(C=NO)n4)cc23)CC1` [2-200, 1-[3-(3,5-difluorophenyl)-6-{6-[(hydroxyimino)methyl]pyridin-2-yl}quinolin-4-yl]piperidin-4-amine] stands below 10 nM; under `Cc1ccc(F)c(C=NO)c1-c1ccc2ncc(-c3cc(F)cc(F)c3)c(N3CCC(N)CC3)c2c1` [2-202, 1-[3-(3,5-difluorophenyl)-6-{3-fluoro-2-[(hydroxyimino)methyl]-6-methylphenyl}quinolin-4-yl]piperidin-4-amine], below 10 nM. For `NC1CCN(c2c(-c3cc(F)cc(F)c3)cnc3ccc(-c4ccnc(C=NO)c4)cc23)CC1` [2-203, 1-[3-(3,5-difluorophenyl)-6-{2-[(hydroxyimino)methyl]pyridin-4-yl}quinolin-4-yl]piperidin-4-amine], the EC50 was below 10 nM.

In the case of `COCCOc1c(C#N)cc(F)cc1-c1ccc2ncc(-c3cc(C)cc(F)c3)c(N3CCC(N)CC3)c2c1` [2-204, 3-[4-(4-aminopiperidin-1-yl)-3-(3-fluoro-5-methylphenyl)quinolin-6-yl]-5-fluoro-2-(2-methoxyethoxy)benzonitrile], the EC50 is below 10 nM. Consider `COC(=O)Nc1c(C#N)cc(F)c(F)c1-c1ccc2ncc(-c3cc(C)cc(F)c3)c(N3CCC(N)CC3)c2c1` [2-205], for which the EC50 is below 10 nM. `CON(C)C(=O)Nc1c(C#N)cc(F)c(F)c1-c1ccc2ncc(-c3cc(C)cc(F)c3)c(N3CCC(N)CC3)c2c1` [2-206, 1-{2-[4-(4-aminopiperidin-1-yl)-3-(3-fluoro-5-methylphenyl)quinolin-6-yl]-6-cyano-3,4-difluorophenyl}-3-methoxy-3-methylurea]: the EC50 is below 10 nM. On the same count and under the same terms, under `COC(=O)Nc1c(F)cccc1-c1ccc2ncc(-c3cc(C)cc(F)c3)c(N3CCC(N)CC3)c2c1` [2-209, methyl N-{2-[4-(4-aminopiperidin-1-yl)-3-(3-fluoro-5-methylphenyl)quinolin-6-yl]-6-fluorophenyl}carbamate] stands below 10 nM; under `CON(C)C(=O)Nc1c(F)cccc1-c1ccc2ncc(-c3cc(C)cc(F)c3)c(N3CCC(N)CC3)c2c1` [2-210, 1-{2-[4-(4-aminopiperidin-1-yl)-3-(3-fluoro-5-methylphenyl)quinolin-6-yl]-6-fluorophenyl}-3-methoxy-3-methylurea], below 10 nM.

With `Cc1cc(F)cc(-c2cnc3ccc(-c4cn(C)nc4N)cc3c2N2CCC(N)CC2)c1` [2-211, 1-[6-(3-amino-1-methyl-1H-pyrazol-4-yl)-3-(3-fluoro-5-methylphenyl)quinolin-4-yl]piperidin-4-amine], the EC50 is below 10 nM.
